Here are results for 2 molecules from patent US6878253B2, “Chiral separation of benzoporphyrin derivative mono-and di-acids by laser-induced fluorescence capillary electrophoresis” (The University of British Columbia, priority 1998, dated 2005).

Data set [1] in a line: Extinction coefficient determination in borate/cholate buffer. The format is physicochemical. The conditions noted are these: 430 nm; 300 mM borate, 10% acetonitrile, 25 mM sodium cholate, pH 9.2. From the text: The compounds have the same chromophore and identical absorption spectra (FIG. 3a) with a characteristic major broad peak in the Soret region (420 nm) and several other peaks at longer wavelengths. The most interesting long wavelength peak, in terms of applications in PDT, is the peak at 688 nm (in organic solvents). […] An emission spectrum is also shown in FIG. 3b with a characteristic emission at about 692 nm, near red (Q-band), with a Stokes shift of ˜4 nm for fluorescence. […] As such, there is no gain in photo absorption by use of any particular BPD enantiomer.

Data set [2] relates to skin. As to conditions: versus Photofrin (Richter et al. (1987)); cited from earlier work.
A short description of data set [3]: Decomposition (hydrolysis) in electrophoresis buffers. It is filed as physicochemical. The conditions noted are these: in one hour at pH 9.2. The method, then: Separation by CE is also affected by the buffering system used. Buffer type, concentration, ionic strength, and pH are all parameters to consider, and a variety of buffers may be used. Buffer solutions of pH 11.04, 100 mM 3-(cyclohexylamino)-1-propanesulfonic acid (CAPS); pH 6.76, 30 mM ammonium acetate; pH 2.76, 50 mM citric acid; and pH 9.2, 100 mM borate were tested as electrolytes. […] This was followed by either separation shut down or excess spiking and signal noise. In citric acid buffer the BPD enantiomers were protonated at the propionic side chain, defeating separation based on the deprotonated state. Since the effective charge(s) are the same for BPD-DA and BPD-MA, the electrophoretic mobility difference is normally very small. Also, at […], the EOF was very small and this caused the migration time to become overly long. The result was very poor signal separation due to extensive diffusion.
With borate buffer at about pH 9.2, however, the BPD-DA and BPD-MA enantiomers were completely separated. This, in combination with the ability of borate to form a very stable buffer solution with high buffering capacity and its ability to be used in very high concentrations, made it a preferred choice for use in the instant separation methods. Borate has also been used in other separation systems (Consden et al. (1952); Boeseken (1949); and Landers et al. (1992)). […]

For the molecule `C=Cc1c(C)c2cc3nc(cc4[nH]c(cc5nc(cc1[nH]2)C(C)=C5CCC(=O)O)c(CCC(=O)O)c4C)[C@@]1(C)C3=CC=C(C(=O)OC)[C@H]1C(=O)OC` [BPD-DA, benzoporphyrin derivative diacid], the Extinction coefficient in data set [1] is recorded as 75,200 M^−1 cm^−1.
For “benzoporphyrin derivative monoacid ring A [BPD-MA]”, the skin phototoxicity entry in data set [2] is recorded as “lower skin phototoxicity than Photofrin”. Besides, the decomposition result in data set [3] is given as “less than 1%”. For the same molecule, in data set [1], the Extinction coefficient is 61,000 M^−1 cm^−1.
